Common to all, as to assay type: cell-based
The test system of assay [1] is third stage larvae of Haemonchus contortus. The experiment in a line: Haemonchus contortus L3 (HcL3) Assay. To be noted: 96 h, read-out: HcL3 Minimum Effective Dose (MED).
Assay [2] relates to 4th stage larvae (L4) of Dirofilaria immitis. The experiment in a line: Dirofilaria immitis, L4 Stage (DiL4) In Vitro Assay. The conditions noted are these: Dirofilaria immitis, 72 h, read-out: DiL4 Minimum Effective Dose (MED), approximately 72 hours incubation; L4 larvae assessed for survival or paralysis.
Assay [3] concerns microfilariae of Dirofilaria immitis. The assay is described as follows: Dirofilaria immitis, Microfilaria (DiMF) In vitro Assay. To be noted: 72 h, read-out: DiMF Minimum Effective Dose (MED), approximately 72 hours incubation, microfilariae assessed for survival or paralysis.

A value given as a limit tells only on which side of the number the result lay.

Turning to `CC(C)C[C@H]1C(=O)O[C@H](Cc2ccc(C3(n4cc(Cl)cn4)CCC3)cc2)C(=O)N(C)[C@@H](CC(C)C)C(=O)O[C@H](C)C(=O)N(C)[C@@H](CC(C)C)C(=O)O[C@H](Cc2ccc(C3(n4cc(Cl)cn4)CCC3)cc2)C(=O)N(C)[C@@H](CC(C)C)C(=O)O[C@H](C)C(=O)N1C` [Example 1c-2, (3S,6R,9S,12R,15S,18R,21S,24R)-6,18-bis(4-(1-(4-chloro-1H-pyrazol-1-yl)cyclobutyl)benzyl)-3,9,15,21-tetraisobutyl-4,10,12,16,22,24-hexamethyl-1,7,13,19-tetraoxa-4,10,16,22-tetraazacyclotetracosan-2,5,8,11,14,17,20,23-octaone], the minimal effective concentration is not above 1 µM in assay [1], not above 0.0001 µM in assay [2] and 0.001 to 0.01 µM in assay [3].
For the compound `CC(C)C[C@H]1C(=O)O[C@H](Cc2ccc(Cn3cc(I)cn3)cc2)C(=O)N(C)[C@@H](CC(C)C)C(=O)O[C@H](C)C(=O)N(C)[C@@H](CC(C)C)C(=O)O[C@H](Cc2ccc(Cn3cccn3)cc2)C(=O)N(C)[C@@H](CC(C)C)C(=O)O[C@H](C)C(=O)N1C` [Example 1a-21, (3S,6R,9S,12R,15S,18R,21S,24R)-6-(4-((1H-pyrazol-1-yl)methyl)benzyl)-18-(4-((4-iodo-1H-pyrazol-1-yl)methyl)benzyl)-3,9,15,21-tetraisobutyl-4,10,12,16,22,24-hexamethyl-1,7,13,19-tetraoxa-4,10,16,22-tetraazacyclotetracosan-2,5,8,11,14,17,20,23-octaone], the values for the minimal effective concentration in assay [1], in assay [2] and in assay [3] were 1 to 10 µM, 0.0001 to 0.001 µM and 0.001 to 0.01 µM, respectively.
For `CC(C)C[C@H]1C(=O)O[C@H](Cc2ccc(Cn3ccc(N)n3)cc2)C(=O)N(C)[C@@H](CC(C)C)C(=O)O[C@H](C)C(=O)N(C)[C@@H](CC(C)C)C(=O)O[C@H](Cc2ccc(Cn3ccc(N)n3)cc2)C(=O)N(C)[C@@H](CC(C)C)C(=O)O[C@H](C)C(=O)N1C` [Example 1b-143, (3S,6R,9S,12R,15S,18R,21S,24R)-6,18-bis(4-((3-amino-1H-pyrazol-1-yl)methyl)benzyl)-3,9,15,21-tetraisobutyl-4,10,12,16,22,24-hexamethyl-1,7,13,19-tetraoxa-4,10,16,22-tetraazacyclotetracosan-2,5,8,11,14,17,20,23-octaone], in that order: 1 to 10 µM, 0.001 to 0.01 µM and 0.001 to 0.01 µM.
In the case of `CC(C)C[C@H]1C(=O)O[C@H](Cc2ccc(Cn3nccc3Br)cc2)C(=O)N(C)[C@@H](CC(C)C)C(=O)O[C@H](C)C(=O)N(C)[C@@H](CC(C)C)C(=O)O[C@H](Cc2ccc(Cn3ccc(Br)n3)cc2)C(=O)N(C)[C@@H](CC(C)C)C(=O)O[C@H](C)C(=O)N1C` [Example 1a-31, (3S,6R,9S,12R,15S,18R,21S,24R)-6-(4-((3-bromo-1H-pyrazol-1-yl)methyl)benzyl)-18-(4-((5-bromo-1H-pyrazol-1-yl)methyl)benzyl)-3,9,15,21-tetraisobutyl-4,10,12,16,22,24-hexamethyl-1,7,13,19-tetraoxa-4,10,16,22-tetraazacyclotetracosan-2,5,8,11,14,17,20,23-octaone], the minimal effective concentration was 1 to 10 µM in assay [1], 0.0001 to 0.001 µM in assay [2] and 0.01 to 0.1 µM in assay [3].
With `Cc1ccc(C#N)n1Cc1ccc(C[C@H]2OC(=O)[C@H](CC(C)C)N(C)C(=O)[C@@H](C)OC(=O)[C@H](CC(C)C)N(C)C(=O)[C@@H](Cc3ccccc3)OC(=O)[C@H](CC(C)C)N(C)C(=O)[C@@H](C)OC(=O)[C@H](CC(C)C)N(C)C2=O)cc1` [Example 10-30, 1-(4-(((2R,5S,8R,11S,14R,17S,20R,23S)-14-benzyl-5,11,17,23-tetraisobutyl-4,8,10,16,20,22-hexamethyl-3,6,9,12,15,18,21,24-octaoxo-1,7,13,19-tetraoxa-4,10,16,22-tetraazacyclotetracosan-2-yl)methyl)benzyl)-5-methyl-1H-pyrrole-2-carbonitrile], the minimal effective concentration is 1 to 10 µM in assay [1], 0.0001 to 0.001 µM in assay [2] and 0.001 to 0.01 µM in assay [3].
The like results for `CC(C)C[C@H]1C(=O)O[C@H](Cc2ccc(Cn3ncnc3C(C)(C)C)cc2)C(=O)N(C)[C@@H](CC(C)C)C(=O)O[C@H](C)C(=O)N(C)[C@@H](CC(C)C)C(=O)O[C@H](Cc2ccc(Cn3ncnc3C(C)(C)C)cc2)C(=O)N(C)[C@@H](CC(C)C)C(=O)O[C@H](C)C(=O)N1C` [Example 9-51, (3S,6R,9S,12R,15S,18R,21S,24R)-6,18-bis(4-((5-(tert-butyl)-1H-1,2,4-triazol-1-yl)methyl)benzyl)-3,9,15,21-tetraisobutyl-4,10,12,16,22,24-hexamethyl-1,7,13,19-tetraoxa-4,10,16,22-tetraazacyclotetracosan-2,5,8,11,14,17,20,23-octaone] were, in that order, 1 to 10 µM, 0.001 to 0.01 µM and 0.001 to 0.01 µM.
For `CCc1cc(C)nn1Cc1ccc(C[C@H]2OC(=O)[C@H](CC(C)C)N(C)C(=O)[C@@H](C)OC(=O)[C@H](CC(C)C)N(C)C(=O)[C@@H](Cc3ccc(Cn4nc(C)cc4CC)cc3)OC(=O)[C@H](CC(C)C)N(C)C(=O)[C@@H](C)OC(=O)[C@H](CC(C)C)N(C)C2=O)cc1` [Example 1b-187, (3S,6R,9S,12R,15S,18R,21S,24R)-6,18-bis(4-((5-ethyl-3-methyl-1H-pyrazol-1-yl)methyl)benzyl)-3,9,15,21-tetraisobutyl-4,10,12,16,22,24-hexamethyl-1,7,13,19-tetraoxa-4,10,16,22-tetraazacyclotetracosan-2,5,8,11,14,17,20,23-octaone], in that order: 1 to 10 µM, 0.001 to 0.01 µM and 0.01 to 0.1 µM.
In the case of `CC(C)C[C@H]1C(=O)O[C@H](Cc2ccc(Cn3cc(C(F)(F)F)ccc3=O)cc2)C(=O)N(C)[C@@H](CC(C)C)C(=O)O[C@H](C)C(=O)N(C)[C@@H](CC(C)C)C(=O)O[C@H](Cc2ccc(Cn3cc(C(F)(F)F)ccc3=O)cc2)C(=O)N(C)[C@@H](CC(C)C)C(=O)O[C@H](C)C(=O)N1C` [Example 9-22, (3S,6R,9S,12R,15S,18R,21S,24R)-3,9,15,21-tetraisobutyl-4,6,10,16,18,22-hexamethyl-12,24-bis(4-((2-oxo-5-(trifluoromethyl)pyridin-1 (2H)-yl)methyl)benzyl)-1,7,13,19-tetraoxa-4,10,16,22-tetraazacyclotetracosan-2,5,8,11,14,17,20,23-octaone], the minimal effective concentration in assay [1] was in the range of 1 to 10 µM; in assay [2], 0.001 to 0.01 µM; in assay [3], 0.001 to 0.01 µM.
As for `CC(C)C[C@H]1C(=O)O[C@H](Cc2ccc(Cn3nccc3C3CCC3)cc2)C(=O)N(C)[C@@H](CC(C)C)C(=O)O[C@H](C)C(=O)N(C)[C@@H](CC(C)C)C(=O)O[C@H](Cc2ccc(Cn3nccc3C3CCC3)cc2)C(=O)N(C)[C@@H](CC(C)C)C(=O)O[C@H](C)C(=O)N1C` [Example 1b-129, (3S,6R,9S,12R,15S,18R,21S,24R)-6,18-bis(4-((5-cyclobutyl-1H-pyrazol-1-yl)methyl)benzyl)-3,9,15,21-tetraisobutyl-4,10,12,16,22,24-hexamethyl-1,7,13,19-tetraoxa-4,10,16,22-tetraazacyclotetracosan-2,5,8,11,14,17,20,23-octaone], the minimal effective concentration in assay [1] lay within 1 to 10 µM; in assay [2], 0.0001 to 0.001 µM; in assay [3] it was 0.01 to 0.1 µM.
For `CC(C)C[C@H]1C(=O)O[C@H](Cc2ccc(Cn3nccc3CC3CC3)cc2)C(=O)N(C)[C@@H](CC(C)C)C(=O)O[C@H](C)C(=O)N(C)[C@@H](CC(C)C)C(=O)O[C@H](Cc2ccc(Cn3nccc3CC3CC3)cc2)C(=O)N(C)[C@@H](CC(C)C)C(=O)O[C@H](C)C(=O)N1C` [Example 1b-206, (3S,6R,9S,12R,15S,18R,21S,24R)-6,18-bis(4-((5-(cyclopropylmethyl)-1H-pyrazol-1-yl)methyl)benzyl)-3,9,15,21-tetraisobutyl-4,10,12,16,22,24-hexamethyl-1,7,13,19-tetraoxa-4,10,16,22-tetraazacyclotetracosan-2,5,8,11,14,17,20,23-octaone], in that order: not above 1 µM, 0.0001 to 0.001 µM and 0.01 to 0.1 µM.
For `CC(C)C[C@H]1C(=O)O[C@H](Cc2ccc(C(C3CC3)n3cc(OC(C)C)cn3)cc2)C(=O)N(C)[C@@H](CC(C)C)C(=O)O[C@H](C)C(=O)N(C)[C@@H](CC(C)C)C(=O)O[C@H](Cc2ccc(C(C3CC3)n3cc(OC(C)C)cn3)cc2)C(=O)N(C)[C@@H](CC(C)C)C(=O)O[C@H](C)C(=O)N1C` (stereo partly drawn) [Example 1c-5, (3S,6R,9S,12R,15S,18R,21S,24R)-6,18-bis(4-(cyclopropyl(4-isopropoxy-1H-pyrazol-1-yl)methyl)benzyl)-3,9,15,21-tetraisobutyl-4,10,12,16,22,24-hexamethyl-1,7,13,19-tetraoxa-4,10,16,22-tetraazacyclotetracosan-2,5,8,11,14,17,20,23-octaone], the minimal effective concentration in assay [1] is not above 1 µM; in assay [2] it was 0.0001 to 0.001 µM; in assay [3] it was 0.001 to 0.01 µM.
As for `CC(C)C[C@H]1C(=O)O[C@H](Cc2ccc(Cn3nccc3C(C)C)cc2)C(=O)N(C)[C@@H](CC(C)C)C(=O)O[C@H](C)C(=O)N(C)[C@@H](CC(C)C)C(=O)O[C@H](Cc2ccccc2)C(=O)N(C)[C@@H](CC(C)C)C(=O)O[C@H](C)C(=O)N1C` [Example 2-69, (3S,6R,9S,12R,15S,18R,21S,24R)-6-benzyl-3,9,15,21-tetraisobutyl-18-(4-((5-isopropyl-1H-pyrazol-1-yl)methyl)benzyl)-4,10,12,16,22,24-hexamethyl-1,7,13,19-tetraoxa-4,10,16,22-tetraazacyclotetracosan-2,5,8,11,14,17,20,23-octaone], the minimal effective concentration in assay [1] lay within 1 to 10 µM; in assay [2], 0.0001 to 0.001 µM; in assay [3] it was 0.001 to 0.01 µM.

(Values after patent US11331369B2, “Endoparasitic depsipeptides” (Zoetis Services LLC, priority 2017, dated 2022).)
